SMILES strings stand for the structures. ≈ marks a conversion by molar mass, not a printed value.

A short description of series [1]: Aqueous solubility of the compound. The format is physicochemical.
Series [2] can be described thus: Distribution coefficient, logD of compound at pH 7.4. The format is physicochemical. As to conditions: octanol/water.
In series [3] the target is T1, Tyrosine-protein kinase receptor UFO (Homo sapiens, UniProt P30530).
T1 sequence (P30530 whole entry): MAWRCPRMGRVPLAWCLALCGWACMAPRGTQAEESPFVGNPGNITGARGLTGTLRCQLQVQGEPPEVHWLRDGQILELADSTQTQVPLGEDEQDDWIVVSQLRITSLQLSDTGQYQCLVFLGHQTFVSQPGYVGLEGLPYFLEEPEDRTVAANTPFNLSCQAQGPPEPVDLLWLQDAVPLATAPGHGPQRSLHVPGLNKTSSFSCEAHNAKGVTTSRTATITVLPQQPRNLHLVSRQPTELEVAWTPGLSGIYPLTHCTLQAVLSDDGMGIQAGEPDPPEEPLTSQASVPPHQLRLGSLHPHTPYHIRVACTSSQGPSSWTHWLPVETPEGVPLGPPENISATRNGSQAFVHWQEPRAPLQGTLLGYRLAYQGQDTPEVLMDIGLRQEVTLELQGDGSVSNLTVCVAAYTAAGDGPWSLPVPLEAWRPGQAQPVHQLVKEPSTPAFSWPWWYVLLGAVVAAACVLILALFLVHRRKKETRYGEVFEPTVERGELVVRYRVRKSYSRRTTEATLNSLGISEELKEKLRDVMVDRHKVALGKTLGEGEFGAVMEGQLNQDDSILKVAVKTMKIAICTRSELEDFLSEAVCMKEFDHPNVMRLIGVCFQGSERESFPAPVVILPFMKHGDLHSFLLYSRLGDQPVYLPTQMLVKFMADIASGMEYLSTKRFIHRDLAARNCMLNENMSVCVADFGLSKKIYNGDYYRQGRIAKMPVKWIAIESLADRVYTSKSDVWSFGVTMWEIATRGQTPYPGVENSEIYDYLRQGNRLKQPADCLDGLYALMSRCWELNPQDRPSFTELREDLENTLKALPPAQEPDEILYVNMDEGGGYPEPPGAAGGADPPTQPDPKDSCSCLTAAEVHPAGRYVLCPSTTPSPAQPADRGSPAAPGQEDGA
The series can be described thus: Inhibition of GST-tagged AXL (unknown origin) ([…] residues) using Axltide (CKKSRGDYMTMQJG-acid) peptide as substrate preincubated for 30 mins followed by substrate and ATP addition at Km concentration measured after 180 mins by RapidFire LC-MS analysis.

For series [4], the target named is T2, Tyrosine-protein kinase Mer (Homo sapiens, UniProt Q12866).
T2 sequence (Q12866 whole entry): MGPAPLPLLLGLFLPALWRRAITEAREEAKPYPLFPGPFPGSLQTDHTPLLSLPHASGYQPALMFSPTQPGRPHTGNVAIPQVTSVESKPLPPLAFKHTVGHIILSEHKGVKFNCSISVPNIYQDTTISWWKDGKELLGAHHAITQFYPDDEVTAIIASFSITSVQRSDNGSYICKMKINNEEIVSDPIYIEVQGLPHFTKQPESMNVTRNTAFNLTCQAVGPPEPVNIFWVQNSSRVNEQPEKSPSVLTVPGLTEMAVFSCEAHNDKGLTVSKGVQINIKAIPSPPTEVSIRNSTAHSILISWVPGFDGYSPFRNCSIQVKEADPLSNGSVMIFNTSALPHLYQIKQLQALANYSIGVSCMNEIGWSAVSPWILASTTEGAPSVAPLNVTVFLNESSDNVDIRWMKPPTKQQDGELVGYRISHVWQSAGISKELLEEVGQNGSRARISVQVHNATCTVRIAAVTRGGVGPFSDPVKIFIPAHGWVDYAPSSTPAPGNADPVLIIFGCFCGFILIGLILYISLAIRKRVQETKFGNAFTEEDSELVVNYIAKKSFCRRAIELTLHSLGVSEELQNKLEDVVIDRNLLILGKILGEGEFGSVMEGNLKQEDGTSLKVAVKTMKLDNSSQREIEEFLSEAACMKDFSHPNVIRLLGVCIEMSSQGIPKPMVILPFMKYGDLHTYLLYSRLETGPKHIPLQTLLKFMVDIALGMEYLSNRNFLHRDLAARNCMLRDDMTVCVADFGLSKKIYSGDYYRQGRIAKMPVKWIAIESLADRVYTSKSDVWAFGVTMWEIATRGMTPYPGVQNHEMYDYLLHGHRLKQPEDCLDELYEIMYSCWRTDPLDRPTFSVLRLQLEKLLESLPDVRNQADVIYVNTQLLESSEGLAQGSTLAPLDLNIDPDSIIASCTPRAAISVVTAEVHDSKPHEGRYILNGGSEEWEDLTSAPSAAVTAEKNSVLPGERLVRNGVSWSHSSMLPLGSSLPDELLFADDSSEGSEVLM
The series can be described thus: Inhibition of 6His/thrombin cleavage site-fused Avi-tagged dephosphorylated MER (unknown origin) (R528 to M999 residues) using Axltide (CKKSRGDYMTMQJG-acid) peptide as substrate preincubated for 30 mins followed by substrate and ATP addition at Km concentration measured after 120 mins by RapidFire LC-MS analysis.

Series [5] is filed under the species Homo sapiens. The series can be described thus: Selectivity ratio of pIC50 for His6/TEV fused-GST-tagged Flt3 (unknown origin) (H564 to S993 residues) to pIC50 for GST-tagged AXL (unknown origin) ([…] residues).
The target in series [6] is T3, Tyrosine-protein kinase Mer (Homo sapiens) (UniProt Q12866).
T3 sequence (whole entry): T2 sequence (Q12866 whole entry)
The series can be described thus: Inhibition of 6His/thrombin cleavage site-fused Avi-tagged dephosphorylated MER (unknown origin) (R528 to M999 residues) at 1 uM using Axltide (CKKSRGDYMTMQJG-acid) peptide as substrate preincubated for 30 mins followed by substrate and ATP addition at Km concentration measured after 120 mins by RapidFire LC-MS analysis relative to control. The following applies: time 150.0 min.

Series [7] deals with Tyrosine-protein kinase receptor UFO (Homo sapiens) (UniProt P30530). The series can be described thus: Inhibition of GST-tagged AXL (unknown origin) ([…] residues) at 1 uM using Axltide (CKKSRGDYMTMQJG-acid) peptide as substrate preincubated for 30 mins followed by substrate and ATP addition at Km concentration measured after 180 mins by RapidFire LC-MS analysis relative to control. As to conditions: time 210.0 min.

For series [8], the species on record is Homo sapiens. Put plainly: Selectivity ratio of pIC50 for His6/TEV fused-GST-tagged Flt3 (unknown origin) (H564 to S993 residues) to pIC50 for 6His/thrombin cleavage site-fused Avi-tagged dephosphorylated MER (unknown origin) (R528 to M999 residues).

In general, solubility refers to the dissolved amount per volume that the medium holds. Read a low solubility as little dissolved substance. The term logD denotes the decadic logarithm of the distribution of all forms, ionised or not, between an organic phase and buffer at a given pH. Low values mean a more hydrophilic compound, high ones a more lipophilic compound. As usually defined, the IC50 is the concentration needed to halve the response being measured. As for `CNC(=O)C[C@@H](NC(=O)[C@@H](CCc1ccccc1)NC(=O)c1c(C)noc1-c1snnc1C)c1ccc(C(F)(F)F)cc1`, the solubility in series [1] is below 0.2 µM. The logD in series [2] was found to be 4.2. Further, the IC50 is 15.8 nM in series [3] and 5.01 nM in series [4].
The inhibition is the percentage by which the read-out fell short of the control. A lower inhibition goes with a response near the control. Regarding `CNC(=O)c1sc(N2CC3CC2(CNC(=O)c2c[nH]c4ncc(Cl)cc24)C3)nc1C(F)(F)F`, the Ratio pIC50 in the series filed under Homo sapiens [5] and in the series listed under Homo sapiens [8] was above 60 each time. The same compound had a solubility in series [1] of 2 µM (≈ 0.998 µg/mL). In addition, the inhibition in series [6] and in series [7] was above 75% each time. The pH-dependent lipophilicity (logD) in series [2] is 4. Further, the IC50 was 10 nM in series [3] and 25.1 nM in series [4].
`COc1cc2ncnc(Nc3cnc(OCCC4CC4)nc3)c2cc1OCC1CCNCC1` registered a solubility in series [1] of 260 µM (≈ 117 µg/mL). The logD in series [2] was determined as 1.4. For the same compound, the half-maximal inhibitory concentration (IC50) in series [3] was 3160 nM; in series [4], 251 nM.
For `CN(Cc1ccc2nccn2c1)c1nnc(-c2ccc(OC3CCCC3)cc2)o1`, in that order: 33 µM (≈ 12.9 µg/mL), 4.1, 3980 nM and 100 nM.
For `CN(Cc1ccc2nccn2c1)c1nnc(-c2ccc(-c3ccccc3Cl)nc2)o1`, in that order: 10 µM (≈ 4.17 µg/mL), 3.3, 3160 nM and 126 nM.
In series [1], `CNc1nc(OCC2CCC2)nc2c1ncn2Cc1c(F)cccc1F` showed a solubility of 4 µM (≈ 1.44 µg/mL). This compound also showed a log distribution coefficient (logD) in series [2] of 4.4. Further, the IC50 was 1580 nM in series [3] and 50.1 nM in series [4].
For `Cc1cc(N(C)C)ccc1-c1nnc(N(C)Cc2ccc3nccn3c2)o1`, in that order: 23 µM (≈ 8.34 µg/mL), 3.2, 15800 nM and 631 nM.
On to `CCn1c(-c2nnc(N(C)Cc3ccc4nccn4c3)o2)nc2ccccc21`, for which the concentration in solution in series [1] (solubility) was 120 µM (≈ 44.8 µg/mL). Also, in series [2], the log distribution coefficient (logD) came out at 3. In addition, the concentration for half-maximal inhibition (IC50) in series [3] was 39800 nM; in series [4], 631 nM.
For `CNC(=O)c1sc(N2CC3CC2(CNC(=O)c2c[nH]c4ncc(C)cc24)C3)nc1C(F)(F)F`, in that order: below 1.6 µM, 3.5, 3.98 nM and 12.6 nM.
In turn, `CNC(=O)c1sc(N2CC3CC2(CNC(=O)c2c[nH]c4ncc(C(F)(F)F)cc24)C3)nc1C(F)(F)F` had a solubility in series [1] below 1.6 µM. The compound also showed a logD in series [2] of 4.2. The IC50 is 25.1 nM in series [3] and 63.1 nM in series [4].
In the case of `CN(Cc1ccc2nccn2c1)c1nnc(-c2ccc(-c3ccccc3Cl)cc2)o1`, the concentration in solution in series [1] (solubility) was 1.1 µM (≈ 0.457 µg/mL). Further, the logD in series [2] worked out at 4.8. In addition, the IC50 was 398 nM in series [3] and 5.01 nM in series [4].
The compound `C[C@@H]1CN(c2cnc(Nc3cc(F)c(OCC4CC4)c(F)c3)nc2NC2CCOCC2)CCN1` displayed a solubility in series [1] of 400 µM (≈ 190 µg/mL). In addition, the log distribution coefficient (logD) in series [2] came to 3.2. Moreover, the half-maximal inhibitory concentration (IC50) was 1580 nM in series [3] and 50.1 nM in series [4].
For `CN(Cc1ccc2c(c1)CCCO2)c1nnc(-c2ccc(-c3ccccc3Cl)cc2)o1`, in that order: 0.1 µM (≈ 0.0432 µg/mL), above 5.6, 398 nM and 25.1 nM.
For `CN(Cc1ccc2nccn2c1)c1nnc(-c2ncc(C(F)(F)F)cc2Cl)o1`, in that order: 301 µM (≈ 123 µg/mL), 2.6, above 100000 nM and 794 nM.
On to `Cc1c(C(=O)Nc2ccc(Oc3ccnc4[nH]cc(-c5ccccc5)c34)c(F)c2)c(=O)n(-c2ccc(F)cc2)n1C`, for which the solubility in series [1] worked out at 0.01 µM (≈ 0.00552 µg/mL). The same compound displayed a logD in series [2] above 5. For the same compound, the IC50 in series [3] is 3.16 nM; in series [4], 1.58 nM.
Consider `O=S(=O)(c1ccc(Nc2ncc(N3CCOCC3)c(Nc3ccccc3)n2)cc1)N1CCCCC1`, for which the solubility in series [1] stood at 0.6 µM (≈ 0.297 µg/mL). In series [2], this compound showed a log distribution coefficient (logD) of 4.5. Also, the IC50 in series [3] was 200 nM; in series [4], 50.1 nM.
For `CNC(=O)c1sc(N2CC3CC2(CNC(=O)c2c[nH]c4ncccc24)C3)nc1C(F)(F)F`, in that order: below 1.6 µM, 3.1, 10 nM and 25.1 nM.

(Values after ChEMBL document CHEMBL4732252, “Generating Selective Leads for Mer Kinase Inhibitors-Example of a Comprehensive Lead-Generation Strategy” (J Med Chem, 2021).)
